Measurements reported in patent US11376268B2, “Methods and materials for treating human immunodeficiency virus infections” (priority 2015, dated 2022).

Tests used:
[1] = system: J-Lat cells (a model of HIV latency, using GFP tagged HIV); experiment: J-Lat cells flow cytometry for HIV GFP expression and activated caspase 3 (FIG. 6); assay type: cell-based; conditions: 24 hours, bortezomib 1, 10, or 20 nM, MLN-2238 (ixazomib) 10 or 50 nM
Experimental: FIG. 6 contains flow cytometry results of J-Lat cells (a model of HIV latency, using GFP tagged HIV) treated with nothing, bortezomib (1, 10, or 20 nM), or MLN-2238 (ixazomib; 10 or 50 nM) and analyzed 24 hours later for activated caspase 3 expression and for HIV expression.

[2] = system: CD4 T cells from an HIV positive patient with ART suppressed HIV replication; experiment: Flow cytometry of CD4 T cells from an HIV positive patient for intracellular p24 and activated caspase 3 (FIG. 7); assay type: cell-based, human; conditions: 48 hours
Experimental: FIG. 7 contains flow cytometry results of CD4 T cells from an HIV positive patient with ART suppressed HIV replication. Cells were treated with bortezomib or MLN-2238 (ixazomib) at the indicated doses and analyzed 48 hours later for intracellular p24 expression (as a measure of HIV reactivation), and for activated caspase 3 expression (as a measure of cell death).

[3] = system: J-Lat cells (a model of HIV latency using GFP HIV); experiment: J-Lat cells time course flow cytometry (FIG. 8); assay type: cell-based; conditions: analyzed at 24, 48, and 72 hours
Experimental: J-Lat cells (a model of HIV latency using GFP HIV) were treated with bortezomib or ixazomib at the indicated doses and analyzed at 24, 48, and 72 hours.

[4] = system: HIV-LTR; experiment: Luc expression in primary CD4 T cells infected with HIV luc or transfected with HIV-LTR Luc (FIG. 9); assay type: cell-based; conditions: primary CD4 T cells infected with HIV luc or transfected with HIV-LTR Luc and TK renilla
Experimental: Primary CD4 T cells infected with HIV luc (top panel) or primary CD4 T cells transfected with HIV-LTR Luc and co-transfected TK renilla (bottom panel) were treated with the indicated doses of bortezomib or ixazomib, and analyzed for Luc expression as a measure of HIV reactivation.

[5] = system: HDAC-1; experiment: HDAC-1 expression in primary CD4 T cells (FIG. 11); assay type: cell-based
Experimental: (§1) FIG. 11. […] Proteosome inhibitors were analyzed for the ability to alter the expression of HDAC. Bortezomib and ixazomib decreased HDAC-1, HDAC-3, and HDAC-4 expression in primary CD4 T cells.

[6] = system: HDAC-3; experiment: HDAC-3 expression in primary CD4 T cells (FIG. 11); assay type: cell-based
Experimental: as §1

[7] = system: HDAC-4; experiment: HDAC-4 expression in primary CD4 T cells (FIG. 11); assay type: cell-based
Experimental: as §1

[8] = system: UPR pathway; experiment: UPR pathway activation in J Lat cells: phospho PERK, phospho IRE1, JNK (FIG. 12); assay type: cell-based; conditions: bortezomib (10 nM) or ixazomib (50 nM)
Experimental: FIG. 12. J-LAT-10.6 or Jurkat cells were treated with bortezomib (10 nM) or ixazomib (50 nM) for the indicated times. Bortezomib and ixazomib induced phospho PERK, phospho IRE1, and JNK activation in J Lat cells, indicating the activation of the UPR pathway.

[9] = system: UPR pathway; experiment: UPR pathway activation in J Lat cells: ATF4 and CHOP nuclear translocation, ATF6 cleavage (FIG. 13); assay type: cell-based; conditions: bortezomib (10 nM) or ixazomib (50 nM)
Experimental: FIG. 13. J-LAT-10.6 or Jurkat cells were treated with bortezomib (10 nM) or ixazomib (50 nM) for the indicated times. Bortezomib and ixazomib induced ATF4 and CHOP translocation into the nucleus, and ATF6 cleavage in J Lat cells, indicating the activation of the UPR pathway.

## CC(C)C[C@H](NC(=O)[C@H](Cc1ccccc1)NC(=O)c1cnccn1)B(O)O [bortezomib, N-pyrazinecarbonyl-L-phenylalanine-L-leucine boronic acid]
[1]
  HIV reactivation (HIV GFP expression): caused HIV reactivation as indicated by increased HIV GFP expression
  death of HIV GFP positive cells (activated caspase 3 expression): caused HIV GFP positive cells to die
[2]
  HIV reactivation (intracellular p24 expression): caused HIV reactivation as indicated by increased HIV p24 expression
  death of HIV positive cells (activated caspase 3 expression in p24 positive cells): caused HIV positive cells to die
[3]
  HIV reactivation from latency: caused HIV reactivation from latency
[4]
  HIV reactivation (Luc expression): independently reactivated HIV
[5]
  HDAC-1 expression: decreased
[6]
  HDAC-3 expression: decreased
[7]
  HDAC-4 expression: decreased
[8]
  JNK activation: induced
  phospho IRE1: induced
  phospho PERK: induced
[9]
  ATF4 translocation into the nucleus: induced
  ATF6 cleavage: induced
  CHOP translocation into the nucleus: induced
